Measured values reported in PubChem BioAssay AID1259407 (Chemical Carcinogenesis Research Information System (CCRIS), 2018).
Active and inactive are the calls of the source. No rule for the calls is given here.

Test system: CCRIS mutagenicity, Ames/micronucleus/aberration tests
Test: CCRIS mutagenicity studies
[1] = Test System: AMES SALMONELLA TYPHIMURIUM, Strain/Indicator: TA98, Metabolic Activation: NONE, Method: PREINCUBATION
[2] = Test System: AMES SALMONELLA TYPHIMURIUM, Strain/Indicator: TA100, Metabolic Activation: NONE, Method: PREINCUBATION
[3] = Test System: AMES SALMONELLA TYPHIMURIUM, Strain/Indicator: TA1537, Metabolic Activation: NONE, Method: STANDARD PLATE
[4] = Test System: AMES SALMONELLA TYPHIMURIUM, Strain/Indicator: TA98, Metabolic Activation: NONE, Method: STANDARD PLATE
[5] = Test System: AMES SALMONELLA TYPHIMURIUM, Strain/Indicator: TA100, Metabolic Activation: NONE, Method: STANDARD PLATE
[6] = Test System: AMES SALMONELLA TYPHIMURIUM, Strain/Indicator: TA100, Metabolic Activation: RAT, LIVER, S-9, AROCLOR 1254, Method: STANDARD PLATE
[7] = Test System: AMES SALMONELLA TYPHIMURIUM, Strain/Indicator: TA1538, Metabolic Activation: NONE, Method: STANDARD PLATE

Measured: mutagenic call

Cc1ccccc1N=Nc1c(O)ccc2ccccc12
active: Test System: AMES SALMONELLA TYPHIMURIUM, Strain/Indicator: TA100, Metabolic Activation: HAMSTER, LIVER, S-9, AROCLOR 1254 (30%), Method: PREINCUBATION active; positive
inactive: Test System: AMES SALMONELLA TYPHIMURIUM, Strain/Indicator: TA98, Metabolic Activation: HAMSTER, LIVER, S-9, AROCLOR 1254 (30%), Method: PREINCUBATION inactive; negative | [1] inactive; negative | Test System: AMES SALMONELLA TYPHIMURIUM, Strain/Indicator: TA98, Metabolic Activation: RAT, LIVER, S-9, AROCLOR 1254 (30%), Method: PREINCUBATION inactive; negative | [2] inactive; negative | Test System: AMES SALMONELLA TYPHIMURIUM, Strain/Indicator: TA100, Metabolic Activation: RAT, LIVER, S-9, AROCLOR 1254 (30%), Method: PREINCUBATION inactive; negative

O=C/C=C\C=O
active: End Point: In vitro micronucleus, Test System: Mouse lymphoma L5178Y cells, Metabolic Activation: None active; positive | Test System: AMES SALMONELLA TYPHIMURIUM, Strain/Indicator: TA104, Metabolic Activation: NONE, Method: PREINCUBATION active; positive | Test System: Mouse lymphoma, Strain/Indicator: L5178Y (tk+/tk-), Metabolic Activation: None, Method: Preincubation active; positive

CNC[C@H](O)c1ccc(O)c(O)c1
inactive: Test System: AMES SALMONELLA TYPHIMURIUM, Strain/Indicator: TA98, Metabolic Activation: HAMSTER, LIVER, S-9, AROCLOR 1254 (10%), Method: PREINCUBATION inactive; negative | [1] inactive; negative | Test System: AMES SALMONELLA TYPHIMURIUM, Strain/Indicator: TA98, Metabolic Activation: RAT, LIVER, S-9, AROCLOR 1254 (10%), Method: PREINCUBATION inactive; negative | Test System: AMES SALMONELLA TYPHIMURIUM, Strain/Indicator: TA100, Metabolic Activation: HAMSTER, LIVER, S-9, AROCLOR 1254 (10%), Method: PREINCUBATION inactive; negative | [2] inactive; negative | Test System: AMES SALMONELLA TYPHIMURIUM, Strain/Indicator: TA100, Metabolic Activation: RAT, LIVER, S-9, AROCLOR 1254 (10%), Method: PREINCUBATION inactive; negative | Test System: AMES SALMONELLA TYPHIMURIUM, Strain/Indicator: TA1535, Metabolic Activation: HAMSTER, LIVER, S-9, AROCLOR 1254 (10%), Method: PREINCUBATION inactive; negative | Test System: AMES SALMONELLA TYPHIMURIUM, Strain/Indicator: TA1535, Metabolic Activation: NONE, Method: PREINCUBATION inactive; negative | Test System: AMES SALMONELLA TYPHIMURIUM, Strain/Indicator: TA1535, Metabolic Activation: RAT, LIVER, S-9, AROCLOR 1254 (10%), Method: PREINCUBATION inactive; negative | Test System: AMES SALMONELLA TYPHIMURIUM, Strain/Indicator: TA1537, Metabolic Activation: HAMSTER, LIVER, S-9, AROCLOR 1254 (10%), Method: PREINCUBATION inactive; negative | Test System: AMES SALMONELLA TYPHIMURIUM, Strain/Indicator: TA1537, Metabolic Activation: NONE, Method: PREINCUBATION inactive; negative | Test System: AMES SALMONELLA TYPHIMURIUM, Strain/Indicator: TA1537, Metabolic Activation: RAT, LIVER, S-9, AROCLOR 1254 (10%), Method: PREINCUBATION inactive; negative

CS(=O)(=O)Nc1ccc(Nc2c3ccccc3nc3ccccc23)cc1
active: [3] active; positive

Nc1ccc2cc(S(=O)(=O)O)c(N=Nc3ccc(N=Nc4ccc(NCCO)cc4NCCO)cc3OCCO)c(O)c2c1
inactive: [4] inactive; negative | [5] inactive; negative | [6] inactive; negative | [7] inactive; negative
active: Test System: AMES SALMONELLA TYPHIMURIUM, Strain/Indicator: TA98, Metabolic Activation: RAT, LIVER, S-9, AROCLOR 1254, Method: STANDARD PLATE active; positive | Test System: AMES SALMONELLA TYPHIMURIUM, Strain/Indicator: TA1538, Metabolic Activation: RAT, LIVER, S-9, AROCLOR 1254, Method: STANDARD PLATE active; positive

O=C(N=c1sn(C(=O)c2ccc([N+](=O)[O-])cc2)c2ccc([N+](=O)[O-])cc12)c1ccc([N+](=O)[O-])cc1
active: Test System: AMES SALMONELLA TYPHIMURIUM, Strain/Indicator: TA100, Metabolic Activation: S-9, Method: STANDARD PLATE active; positive

CCc1ccc2c(c1[N+](=O)[O-])C(=O)c1ccccc1C2=O
inactive: [4] inactive; negative | [5] inactive; negative | Test System: AMES SALMONELLA TYPHIMURIUM, Strain/Indicator: TA1535, Metabolic Activation: NONE, Method: STANDARD PLATE inactive; negative | Test System: AMES SALMONELLA TYPHIMURIUM, Strain/Indicator: TA1535, Metabolic Activation: RAT, LIVER, S-9, AROCLOR 1254, Method: STANDARD PLATE inactive; negative | [3] inactive; negative | [7] inactive; negative
active: [6] active; positive

Cc1ccc(N=Nc2c(O)c(C(=O)O)cc3ccccc23)cc1S(=O)(=O)O
inactive: [4] inactive; negative | Test System: AMES SALMONELLA TYPHIMURIUM, Strain/Indicator: TA98, Metabolic Activation: RAT, LIVER, S-9, Method: STANDARD PLATE inactive; negative | [5] inactive; negative | Test System: AMES SALMONELLA TYPHIMURIUM, Strain/Indicator: TA100, Metabolic Activation: RAT, LIVER, S-9, Method: STANDARD PLATE inactive; negative
